According to the supplement of paper PMC13386468:

Experiments:
Assay in all cases: IC50 for competition of protein binding to Kinobeads
Settings in all cases: assay detail: Kinobeads competition in P. falciparum blood-stage lysate
UniProt C0H5C2 = biological target: UniProt C0H5C2
UniProt C6KSY0 = biological target: UniProt C6KSY0
UniProt Q8IDZ9 = biological target: UniProt Q8IDZ9
UniProt Q8IBN5 = biological target: UniProt Q8IBN5
UniProt Q8IC05 = biological target: UniProt Q8IC05
UniProt Q8IBM9 = biological target: UniProt Q8IBM9
UniProt Q8ILI9 = biological target: UniProt Q8ILI9
UniProt Q8IHR4 = biological target: UniProt Q8IHR4
UniProt C0H4V6 = biological target: UniProt C0H4V6
UniProt Q8IEF0 = biological target: UniProt Q8IEF0
UniProt Q8IJT8 = biological target: UniProt Q8IJT8
UniProt Q8I4V8 = biological target: UniProt Q8I4V8
UniProt C6KST5 = biological target: UniProt C6KST5
UniProt Q8ILC8 = biological target: UniProt Q8ILC8
UniProt Q8I5S7 = biological target: UniProt Q8I5S7
UniProt Q7K6A0 = biological target: UniProt Q7K6A0
UniProt Q8I5D4 = biological target: UniProt Q8I5D4
UniProt Q5MYR6 = biological target: UniProt Q5MYR6
UniProt Q8I502 = biological target: UniProt Q8I502
UniProt Q76NN8 = biological target: UniProt Q76NN8
UniProt Q8IBZ9 = biological target: UniProt Q8IBZ9
UniProt O96153 = biological target: UniProt O96153
UniProt C0H529 = biological target: UniProt C0H529
UniProt Q8IDN6 = biological target: UniProt Q8IDN6
UniProt O97250 = biological target: UniProt O97250
UniProt Q8IHT9 = biological target: UniProt Q8IHT9
UniProt Q8IKV6 = biological target: UniProt Q8IKV6
UniProt Q8IID2 = biological target: UniProt Q8IID2
UniProt Q8IB60 = biological target: UniProt Q8IB60
UniProt Q8ID43 = biological target: UniProt Q8ID43
UniProt Q8I1Q9 = biological target: UniProt Q8I1Q9
UniProt Q8I353 = biological target: UniProt Q8I353
UniProt B9ZSI3 = biological target: UniProt B9ZSI3
UniProt Q8I5D5 = biological target: UniProt Q8I5D5
UniProt Q8I3T8 = biological target: UniProt Q8I3T8
UniProt Q8I2U5 = biological target: UniProt Q8I2U5
UniProt Q7KQM0 = biological target: UniProt Q7KQM0
UniProt Q8IJS7 = biological target: UniProt Q8IJS7
UniProt C6KTB4 = biological target: UniProt C6KTB4
UniProt Q8IKR1 = biological target: UniProt Q8IKR1
UniProt Q8I5F4 = biological target: UniProt Q8I5F4
UniProt C0H4X1 = biological target: UniProt C0H4X1
UniProt Q8ILL5 = biological target: UniProt Q8ILL5
UniProt O97241 = biological target: UniProt O97241
UniProt O97225 = biological target: UniProt O97225
UniProt Q8IDZ8 = biological target: UniProt Q8IDZ8
UniProt Q8IE20 = biological target: UniProt Q8IE20
UniProt Q8I207 = biological target: UniProt Q8I207
UniProt Q8I2J4 = biological target: UniProt Q8I2J4
UniProt Q8IJX0 = biological target: UniProt Q8IJX0
UniProt Q8I1U8 = biological target: UniProt Q8I1U8
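Note: native unpurified kinases from lysate captured on beads bearing immobilized kinase inhibitors, with bead-bound kinases quantified by mass spectrometry across compound doses.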

Chain of UniProt C0H4V6 (C0H4V6 whole entry): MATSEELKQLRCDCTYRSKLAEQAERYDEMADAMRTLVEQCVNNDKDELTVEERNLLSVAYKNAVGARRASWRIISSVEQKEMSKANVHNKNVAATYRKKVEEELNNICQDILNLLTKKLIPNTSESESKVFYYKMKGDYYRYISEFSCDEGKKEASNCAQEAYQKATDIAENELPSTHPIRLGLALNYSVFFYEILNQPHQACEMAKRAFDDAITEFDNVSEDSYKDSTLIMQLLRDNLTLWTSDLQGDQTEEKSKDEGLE
Chain of UniProt Q8IBZ9 (Q8IBZ9 whole entry): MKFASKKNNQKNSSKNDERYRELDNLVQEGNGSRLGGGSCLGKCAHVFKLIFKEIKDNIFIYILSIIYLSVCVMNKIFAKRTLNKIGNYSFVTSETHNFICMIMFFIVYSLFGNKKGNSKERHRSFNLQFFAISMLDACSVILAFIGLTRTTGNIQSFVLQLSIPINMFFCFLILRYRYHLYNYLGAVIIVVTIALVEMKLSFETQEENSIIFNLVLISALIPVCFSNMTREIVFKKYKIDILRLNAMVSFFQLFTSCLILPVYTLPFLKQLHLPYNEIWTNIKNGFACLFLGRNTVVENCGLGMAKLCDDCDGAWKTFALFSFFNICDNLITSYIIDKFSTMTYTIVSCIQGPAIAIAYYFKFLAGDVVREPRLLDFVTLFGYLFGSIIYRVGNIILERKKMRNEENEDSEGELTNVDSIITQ
Chain of UniProt Q8I2J4 (Q8I2J4 whole entry): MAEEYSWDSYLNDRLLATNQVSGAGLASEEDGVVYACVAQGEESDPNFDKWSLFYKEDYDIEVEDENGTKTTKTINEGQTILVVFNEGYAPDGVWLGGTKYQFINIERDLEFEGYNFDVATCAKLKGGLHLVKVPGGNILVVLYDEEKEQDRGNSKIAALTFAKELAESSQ
Chain of UniProt Q7KQM0 (Q7KQM0 whole entry): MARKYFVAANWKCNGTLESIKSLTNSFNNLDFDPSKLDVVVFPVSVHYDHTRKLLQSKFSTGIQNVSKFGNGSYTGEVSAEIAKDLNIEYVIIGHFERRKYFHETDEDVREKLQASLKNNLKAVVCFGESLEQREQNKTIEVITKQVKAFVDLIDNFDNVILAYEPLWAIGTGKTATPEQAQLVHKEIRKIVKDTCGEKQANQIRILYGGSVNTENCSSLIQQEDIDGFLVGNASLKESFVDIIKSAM
Chain of UniProt Q8I4V8 (Q8I4V8 whole entry): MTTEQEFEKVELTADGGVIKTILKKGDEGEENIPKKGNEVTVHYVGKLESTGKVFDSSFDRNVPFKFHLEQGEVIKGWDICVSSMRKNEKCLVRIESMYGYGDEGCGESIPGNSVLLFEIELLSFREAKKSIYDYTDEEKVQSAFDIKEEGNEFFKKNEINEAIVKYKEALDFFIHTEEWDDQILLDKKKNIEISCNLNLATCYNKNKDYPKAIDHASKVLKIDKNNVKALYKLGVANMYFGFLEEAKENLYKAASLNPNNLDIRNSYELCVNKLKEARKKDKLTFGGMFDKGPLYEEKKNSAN

SMILES: O=c1[nH]c2ccc(Cl)cc2c(NC2CN3CCC2CC3)c1-c1nc2ccccc2[nH]1 (stereo unspecified) [CHIR-124]
- IC50 (UniProt C0H5C2): > 20 µM
- IC50 (UniProt C6KSY0): > 20 µM
- IC50 (UniProt Q8IDZ9): > 20 µM
- IC50 (UniProt Q8IBN5): > 20 µM
- IC50 (UniProt Q8IC05): > 20 µM
- IC50 (UniProt Q8IBM9): > 20 µM
- IC50 (UniProt Q8ILI9): > 20 µM
- IC50 (UniProt Q8IHR4): > 20 µM
- IC50 (UniProt C0H4V6): > 20 µM
- IC50 (UniProt Q8IEF0): > 20 µM
- IC50 (UniProt Q8IJT8): > 20 µM
- IC50 (UniProt Q8I4V8): > 20 µM
- IC50 (UniProt C6KST5): > 20 µM
- IC50 (UniProt Q8ILC8): > 20 µM
- IC50 (UniProt Q8I5S7): > 20 µM
- IC50 (UniProt Q7K6A0): 0.865 µM
- IC50 (UniProt Q8I5D4): 7.85 µM
- IC50 (UniProt Q5MYR6): > 20 µM
- IC50 (UniProt Q8I502): > 20 µM
- IC50 (UniProt Q76NN8): > 20 µM
- IC50 (UniProt Q8IBZ9): > 20 µM
- IC50 (UniProt O96153): > 20 µM
- IC50 (UniProt C0H529): > 20 µM
- IC50 (UniProt Q8IDN6): > 20 µM
- IC50 (UniProt O97250): > 20 µM
- IC50 (UniProt Q8IHT9): > 20 µM
- IC50 (UniProt Q8IKV6): > 20 µM
- IC50 (UniProt Q8IID2): > 20 µM
- IC50 (UniProt Q8IB60): > 20 µM
- IC50 (UniProt Q8ID43): > 20 µM
- IC50 (UniProt Q8I1Q9): > 20 µM
- IC50 (UniProt Q8I353): > 20 µM
- IC50 (UniProt B9ZSI3): > 20 µM
- IC50 (UniProt Q8I5D5): > 20 µM
- IC50 (UniProt Q8I3T8): > 20 µM
- IC50 (UniProt Q8I2U5): > 20 µM
- IC50 (UniProt Q7KQM0): > 20 µM
- IC50 (UniProt Q8IJS7): > 20 µM
- IC50 (UniProt C6KTB4): > 20 µM
- IC50 (UniProt Q8IKR1): > 20 µM
- IC50 (UniProt Q8I5F4): > 20 µM
- IC50 (UniProt C0H4X1): > 20 µM
- IC50 (UniProt Q8ILL5): > 20 µM
- IC50 (UniProt O97241): > 20 µM
- IC50 (UniProt O97225): > 20 µM
- IC50 (UniProt Q8IDZ8): > 20 µM
- IC50 (UniProt Q8IE20): > 20 µM
- IC50 (UniProt Q8I207): > 20 µM
- IC50 (UniProt Q8I2J4): > 20 µM
- IC50 (UniProt Q8IJX0): > 20 µM
- IC50 (UniProt Q8I1U8): > 20 µM
